Here are results for one sequence from paper PMC11813143, “HBV polymerase recruits the phosphatase PP1 to dephosphorylate HBc-Ser170 to complete encapsidation” (PLOS Pathogens, 2025).

The test system of this assay is C-S170 Ab. The assay can be described thus: ELISA binding of immobilized HBc CTD peptides to C-S170 Ab. More on the design: species or system rabbit. Particulars: Fig 1C; for O.D. Mean: mean of n = 2. On the procedure: To quantify the binding specificity of C-S170 Ab with non-phosphorylated HBc-Ser170, a flat-bottomed 96-well plate was coated with 100 ng of various peptides, including the non-phosphorylated and phosphorylated peptides covering Ser150, Ser162 and Ser170, and then the C-S170 Ab was added to the wells. For the competition of various peptides to C-S170 Ab, the 96-well plate was coated with 100 ng of non-phosphorylated HBc-Ser170 peptide and then a preincubated mixture containing 100 ng of peptide and the C-S170 Ab was added to the wells. After incubation with rabbit IgG conjugated with HRP, TMB substrate and a stop solution were added. The absorbance at a wavelength of 450 nm (A450) with a reference wavelength of 650 nm was measured using a microplate reader. GraphPad Prism 5 software was used to generate bar graphs and calculate Kd values, binding percentages, and inhibition percentages.
(ELISA stands for enzyme-linked immunosorbent assay.)

Where no end group is shown, it is not given here.

On to PRRRRSQSPRRRR [Ser170], for which the “O.D. Mean” value is reported as 0.008 ([Ab] 0.0001 ng/mL), 0.032 ([Ab] 0.001 ng/mL), 0.271 ([Ab] 0.01 ng/mL) and 1.801 ([Ab] 0.1 ng/mL). For the same sequence, the O.D. came out at 0.008 ([Ab] 0.0001 ng/mL, replicate 1); 0.008 ([Ab] 0.0001 ng/mL, replicate 2); 0.034 ([Ab] 0.001 ng/mL, replicate 1); 0.03 ([Ab] 0.001 ng/mL, replicate 2); 0.255 ([Ab] 0.01 ng/mL, replicate 1); 0.288 ([Ab] 0.01 ng/mL, replicate 2). The O.D. reads like this: ([Ab] 0.1 ng/mL, replicate 1) 1.753; ([Ab] 0.1 ng/mL, replicate 2) 1.85.
